Laboratory results from ChEMBL document CHEMBL1201862, “PubChem BioAssay data set” (2004).
Calls of active or inactive are those of the source.

Tests used:
[1] = molecular target: Keap1/Nrf2 (Homo sapiens, UniProt Q14145); experiment: disruptors of Keap1 binding to Nrf2 peptide – biochemical, fluorescence polarization, cherry-picked samples, dose response (AID 588683)
[2] = molecular target: Protein Rev (Human immunodeficiency virus type 1 group M subtype B (isolate HXB2)(HIV-1), UniProt P04618); experiment: blockers of HIV Rev/RRE RNA complex – biochemical, fluorescence polarization, HIV-1, dose response (AID 434976); set-up: species or system Human immunodeficiency virus 1
[3] = molecular target: UDP-galactopyranose mutase (Mycobacterium tuberculosis, UniProt P9WIQ1); experiment: Inhibitors of Mycobacterium tuberculosis UDP-galactopyranose mutase (UGM) enzyme Measured in Biochemical System Using Plate Reader - 2105-02_Inhibitor_Dose_CherryPick_Activity. [Related pubchem assays (depositor defined):AID504439]
[4] = molecular target: Female germline-specific tumor suppressor gld-1 (Caenorhabditis elegans, UniProt Q17339); experiment: blockers of GLD-1/TGE RNA complex formation – biochemical, fluorescence polarization, C. elegans, dose response (AID 2802);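 further: fluorescence polarization of labeled TGE RNA bound by purified gld-1 protein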
[5] = molecular target: ORF 73 (Human herpesvirus 8, UniProt O40947); experiment: KSHV LANA DNA-binding disruption – biochemical, fluorescence polarization, cherry-picked samples, dose response (AID 504725); set-up: species or system Human gammaherpesvirus 8;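 further: fluorescence polarization of a labeled DNA duplex reporting LANA DNA binding; potency is for inhibitors that block LANA binding to the DNA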
[6] = molecular target: T1, Alkaline phosphatase, tissue-nonspecific isozyme (Homo sapiens, UniProt P05186); experiment: inhibition of tissue-nonspecific alkaline phosphatase – biochemical, dose response (AID 488882); type: functional
T1 sequence (P05186 whole entry): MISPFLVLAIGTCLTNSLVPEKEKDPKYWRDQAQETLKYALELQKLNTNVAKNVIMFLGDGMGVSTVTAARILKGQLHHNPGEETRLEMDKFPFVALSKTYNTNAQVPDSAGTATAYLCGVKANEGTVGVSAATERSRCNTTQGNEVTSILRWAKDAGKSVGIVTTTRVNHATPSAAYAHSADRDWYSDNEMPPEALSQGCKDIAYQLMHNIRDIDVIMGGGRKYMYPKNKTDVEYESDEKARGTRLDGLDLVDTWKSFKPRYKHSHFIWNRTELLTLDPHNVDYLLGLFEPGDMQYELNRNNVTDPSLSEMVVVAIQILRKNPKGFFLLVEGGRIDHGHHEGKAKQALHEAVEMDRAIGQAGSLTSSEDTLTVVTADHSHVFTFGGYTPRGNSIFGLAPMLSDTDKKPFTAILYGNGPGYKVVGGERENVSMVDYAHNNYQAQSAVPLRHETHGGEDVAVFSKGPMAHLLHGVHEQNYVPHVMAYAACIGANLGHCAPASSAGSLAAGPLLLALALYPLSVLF

[7] = molecular target: T2, Intestinal-type alkaline phosphatase (Homo sapiens, UniProt P09923); experiment: inhibition of human intestinal alkaline phosphatase – biochemical, luminescent, uHTS hits, set 2, dose response (AID 488793); type: functional
[8] = molecular target: T2, Intestinal-type alkaline phosphatase; experiment: Dose Response confirmation of uHTS hits from a small molecule inhibitors of human intestinal alkaline phosphatase via a luminescent assay. [Related pubchem assays (depositor defined):AID2544, AID2574]; type: functional
[9] = molecular target: Intestinal-type alkaline phosphatase (Mus musculus, UniProt P24822); experiment: PubChem AID 488875; type: functional
[10] = molecular target: T3, Ubiquitin-conjugating enzyme E2 N (Homo sapiens, UniProt P61088); type: functional
T3 sequence (P61088 whole entry): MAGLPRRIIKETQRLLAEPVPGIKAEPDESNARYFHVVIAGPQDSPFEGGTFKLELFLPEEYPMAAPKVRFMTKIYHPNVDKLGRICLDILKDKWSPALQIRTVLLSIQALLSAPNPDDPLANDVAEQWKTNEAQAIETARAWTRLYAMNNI

[11] = Counterscreen for AddAB inhibitors: absorbance-based bacterial cell-based high throughput dose response assay for inhibitors of bacterial viability. [Related pubchem assays (depositor defined):AID435030, AID449728, AID449731, AID488942, AID488955, AID488956]; type: functional
[12] = molecular target: T4, Bcl-2-related protein A1 (Mus musculus, UniProt Q07440); type: functional;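 further: confirmatory dose–response counterscreen on Bfl-1, used to check hits from a UBC13 polyubiquitin inhibitor campaign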
T4 sequence (Q07440 whole entry): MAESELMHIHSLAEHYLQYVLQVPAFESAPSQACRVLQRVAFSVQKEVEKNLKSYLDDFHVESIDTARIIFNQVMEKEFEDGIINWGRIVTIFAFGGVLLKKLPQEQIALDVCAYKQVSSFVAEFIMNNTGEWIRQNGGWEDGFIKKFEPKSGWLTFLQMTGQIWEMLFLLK

[13] = test system: INS1; experiment: INS-1E survival protection against cytokine death – cell-based, luminescence, retest, dose response (AID 449756); type: functional; conditions: Rattus norvegicus;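 further: cell death triggered by IL-1 beta plus TNF-alpha plus IFN-gamma mixture; protective hits raise ATP signal compared with cytokine alone wells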
[14] = molecular target: T3, Ubiquitin-conjugating enzyme E2 N; type: functional; remark: listed apart in the source
[15] = molecular target: Exodeoxyribonuclease V (Escherichia coli (strain K12), UniProt P04993+P07648+P08394); experiment: RecBCD inhibition via phage-restricted bacterial growth – absorbance, V66 E. coli, mutant T4 phage, counter-screen for AddAB inhibitor project, dose response (AID 492957); type: functional, cell-based, Escherichia coli str. K-12 substr. MG1655
[16] = molecular target: Glyceraldehyde-3-phosphate dehydrogenase (Homo sapiens, UniProt P04406)
[17] = molecular target: T5, Voltage-gated N-type calcium channel alpha-1B subunit/Amyloid beta A4 precursor protein-binding family A member 1 (Homo sapiens, UniProt Q00975+Q02410); type: protein assay
[18] = molecular target: T6, Dual specificity protein phosphatase 3 (Homo sapiens, UniProt P51452); experiment: VHR1 phosphatase inhibitors, primary screen, biochemical, absorbance, uHTS (AID 1654)
[19] = molecular target: Tyrosine-protein phosphatase non-receptor type 12 (Homo sapiens, UniProt Q05209); experiment: SAR Selectivity Analysis of small molecule inhibitors of PEST using pCAP in a fluorescence assay. [Related pubchem assays (depositor defined):AID1779, AID1784, AID2135]; type: functional
[20] = molecular target: T7, Tyrosine-protein phosphatase non-receptor type 7 (Homo sapiens, UniProt P35236); experiment: inhibition of hematopoietic tyrosine phosphatase HePTP – biochemical, set 2, SAR follow-up (AID 449736); type: functional
T7 sequence (P35236 whole entry): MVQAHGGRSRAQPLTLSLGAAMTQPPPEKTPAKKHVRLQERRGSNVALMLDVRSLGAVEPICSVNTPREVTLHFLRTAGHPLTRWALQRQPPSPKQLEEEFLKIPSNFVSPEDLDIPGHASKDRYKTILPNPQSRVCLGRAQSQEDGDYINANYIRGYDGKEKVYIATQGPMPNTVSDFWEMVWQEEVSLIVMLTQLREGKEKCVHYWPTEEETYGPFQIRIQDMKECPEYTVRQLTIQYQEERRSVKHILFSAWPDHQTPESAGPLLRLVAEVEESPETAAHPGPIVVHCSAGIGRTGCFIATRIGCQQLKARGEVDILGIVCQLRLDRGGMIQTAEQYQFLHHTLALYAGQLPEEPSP

[21] = molecular target: NS3 (Hepatitis C virus, UniProt A3EZJ3); experiment: PubChem AID 2173; set-up: species or system Hepacivirus hominis
[22] = molecular target: T8, Tyrosine-protein phosphatase non-receptor type 22 (Homo sapiens, UniProt Q9Y2R2); experiment: SAR LYP1 Fluorescent Assay using OMFP substrate for In Vitro dose response studies - Set 3. [Related pubchem assays (depositor defined):AID1779, AID1784, AID2140, AID2686]; type: functional
T8 sequence (Q9Y2R2 whole entry): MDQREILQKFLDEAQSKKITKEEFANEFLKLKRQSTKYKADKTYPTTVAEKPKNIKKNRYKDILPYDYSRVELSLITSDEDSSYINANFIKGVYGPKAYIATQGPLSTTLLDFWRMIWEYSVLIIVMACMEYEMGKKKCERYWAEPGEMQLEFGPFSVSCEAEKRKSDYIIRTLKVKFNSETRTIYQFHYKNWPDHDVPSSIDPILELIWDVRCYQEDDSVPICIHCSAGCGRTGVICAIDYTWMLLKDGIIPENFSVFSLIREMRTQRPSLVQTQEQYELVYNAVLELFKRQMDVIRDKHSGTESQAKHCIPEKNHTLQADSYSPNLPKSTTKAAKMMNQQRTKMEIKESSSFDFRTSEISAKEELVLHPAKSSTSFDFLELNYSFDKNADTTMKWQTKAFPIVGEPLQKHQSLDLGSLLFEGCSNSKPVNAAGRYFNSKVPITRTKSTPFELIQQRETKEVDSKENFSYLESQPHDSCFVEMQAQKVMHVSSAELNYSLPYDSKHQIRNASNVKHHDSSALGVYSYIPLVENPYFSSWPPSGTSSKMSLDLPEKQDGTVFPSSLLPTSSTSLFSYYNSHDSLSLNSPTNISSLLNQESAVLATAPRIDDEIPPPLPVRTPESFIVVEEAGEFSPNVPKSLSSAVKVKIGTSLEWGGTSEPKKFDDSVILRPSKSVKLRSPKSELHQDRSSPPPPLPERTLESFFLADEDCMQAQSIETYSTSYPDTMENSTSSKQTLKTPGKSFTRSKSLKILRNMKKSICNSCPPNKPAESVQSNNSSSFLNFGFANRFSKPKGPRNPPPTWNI

[23] = molecular target: T5, Voltage-gated N-type calcium channel alpha-1B subunit/Amyloid beta A4 precursor protein-binding family A member 1; type: protein assay; remark: listed apart in the source
[24] = molecular target: Dual specificity protein phosphatase 6 (Rattus norvegicus, UniProt Q64346); experiment: inhibition of rat DUSP6 enzyme activity – biochemical, in vitro, primary screen (AID 425)
[25] = molecular target: T6, Dual specificity protein phosphatase 3; experiment: VHR1 phosphatase inhibitors, biochemical (AID 1878)
[26] = molecular target: T8, Tyrosine-protein phosphatase non-receptor type 22; experiment: inhibition of lymphoid tyrosine phosphatase LYP – biochemical, pCAP fluorogenic substrate, fluorescence, set 3, SAR follow-up (AID 449727); type: functional
[27] = bead-based luminescence quenchers, dual-tagged ARNT – biochemical, AlphaScreen, cherry-pick, artefact control for ARNT-TACC3 interaction inhibitor project, dose response (AID 651705); type: functional;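 further: AlphaScreen bead proximity signal that flags compounds interfering with the detection technology; potency reflects signal decrease which marks the compound as an assay artifact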
[28] = molecular target: Lysine-specific demethylase 4A (Homo sapiens, UniProt O75164); experiment: inhibition of JMJD2A H3K9me3 demethylation – biochemical, DELFIA europium, cherry-picked samples, selectivity assay for GASC-1 inhibitor project, dose response (AID 488840)
[29] = molecular target: Lysine-specific demethylase 4C (Homo sapiens, UniProt Q9H3R0); experiment: inhibition of JMJD2C H3K9me3 demethylation – biochemical, DELFIA europium, cherry-picked samples, dose response (AID 488835); type: functional

T2 sequence (P09923 whole entry): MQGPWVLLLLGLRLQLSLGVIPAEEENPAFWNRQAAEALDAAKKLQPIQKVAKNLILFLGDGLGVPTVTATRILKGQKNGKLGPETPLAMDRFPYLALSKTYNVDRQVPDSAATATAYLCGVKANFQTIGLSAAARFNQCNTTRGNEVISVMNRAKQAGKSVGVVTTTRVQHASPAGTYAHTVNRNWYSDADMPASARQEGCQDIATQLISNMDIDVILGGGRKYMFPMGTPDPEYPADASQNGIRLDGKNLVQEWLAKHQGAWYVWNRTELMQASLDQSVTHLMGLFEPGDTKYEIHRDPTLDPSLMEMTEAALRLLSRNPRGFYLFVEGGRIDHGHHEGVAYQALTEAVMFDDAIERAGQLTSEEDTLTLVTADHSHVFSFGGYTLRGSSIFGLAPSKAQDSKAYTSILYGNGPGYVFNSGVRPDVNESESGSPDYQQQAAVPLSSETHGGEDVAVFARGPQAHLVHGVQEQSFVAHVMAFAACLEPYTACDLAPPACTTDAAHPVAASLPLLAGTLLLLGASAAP
T6 sequence (P51452 whole entry): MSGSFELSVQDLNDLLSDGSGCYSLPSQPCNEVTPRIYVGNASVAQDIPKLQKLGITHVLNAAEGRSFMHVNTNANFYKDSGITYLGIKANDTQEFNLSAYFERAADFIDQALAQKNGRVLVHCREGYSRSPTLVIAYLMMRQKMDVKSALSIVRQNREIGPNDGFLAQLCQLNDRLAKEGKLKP
T5 sequence (Q00975 whole entry): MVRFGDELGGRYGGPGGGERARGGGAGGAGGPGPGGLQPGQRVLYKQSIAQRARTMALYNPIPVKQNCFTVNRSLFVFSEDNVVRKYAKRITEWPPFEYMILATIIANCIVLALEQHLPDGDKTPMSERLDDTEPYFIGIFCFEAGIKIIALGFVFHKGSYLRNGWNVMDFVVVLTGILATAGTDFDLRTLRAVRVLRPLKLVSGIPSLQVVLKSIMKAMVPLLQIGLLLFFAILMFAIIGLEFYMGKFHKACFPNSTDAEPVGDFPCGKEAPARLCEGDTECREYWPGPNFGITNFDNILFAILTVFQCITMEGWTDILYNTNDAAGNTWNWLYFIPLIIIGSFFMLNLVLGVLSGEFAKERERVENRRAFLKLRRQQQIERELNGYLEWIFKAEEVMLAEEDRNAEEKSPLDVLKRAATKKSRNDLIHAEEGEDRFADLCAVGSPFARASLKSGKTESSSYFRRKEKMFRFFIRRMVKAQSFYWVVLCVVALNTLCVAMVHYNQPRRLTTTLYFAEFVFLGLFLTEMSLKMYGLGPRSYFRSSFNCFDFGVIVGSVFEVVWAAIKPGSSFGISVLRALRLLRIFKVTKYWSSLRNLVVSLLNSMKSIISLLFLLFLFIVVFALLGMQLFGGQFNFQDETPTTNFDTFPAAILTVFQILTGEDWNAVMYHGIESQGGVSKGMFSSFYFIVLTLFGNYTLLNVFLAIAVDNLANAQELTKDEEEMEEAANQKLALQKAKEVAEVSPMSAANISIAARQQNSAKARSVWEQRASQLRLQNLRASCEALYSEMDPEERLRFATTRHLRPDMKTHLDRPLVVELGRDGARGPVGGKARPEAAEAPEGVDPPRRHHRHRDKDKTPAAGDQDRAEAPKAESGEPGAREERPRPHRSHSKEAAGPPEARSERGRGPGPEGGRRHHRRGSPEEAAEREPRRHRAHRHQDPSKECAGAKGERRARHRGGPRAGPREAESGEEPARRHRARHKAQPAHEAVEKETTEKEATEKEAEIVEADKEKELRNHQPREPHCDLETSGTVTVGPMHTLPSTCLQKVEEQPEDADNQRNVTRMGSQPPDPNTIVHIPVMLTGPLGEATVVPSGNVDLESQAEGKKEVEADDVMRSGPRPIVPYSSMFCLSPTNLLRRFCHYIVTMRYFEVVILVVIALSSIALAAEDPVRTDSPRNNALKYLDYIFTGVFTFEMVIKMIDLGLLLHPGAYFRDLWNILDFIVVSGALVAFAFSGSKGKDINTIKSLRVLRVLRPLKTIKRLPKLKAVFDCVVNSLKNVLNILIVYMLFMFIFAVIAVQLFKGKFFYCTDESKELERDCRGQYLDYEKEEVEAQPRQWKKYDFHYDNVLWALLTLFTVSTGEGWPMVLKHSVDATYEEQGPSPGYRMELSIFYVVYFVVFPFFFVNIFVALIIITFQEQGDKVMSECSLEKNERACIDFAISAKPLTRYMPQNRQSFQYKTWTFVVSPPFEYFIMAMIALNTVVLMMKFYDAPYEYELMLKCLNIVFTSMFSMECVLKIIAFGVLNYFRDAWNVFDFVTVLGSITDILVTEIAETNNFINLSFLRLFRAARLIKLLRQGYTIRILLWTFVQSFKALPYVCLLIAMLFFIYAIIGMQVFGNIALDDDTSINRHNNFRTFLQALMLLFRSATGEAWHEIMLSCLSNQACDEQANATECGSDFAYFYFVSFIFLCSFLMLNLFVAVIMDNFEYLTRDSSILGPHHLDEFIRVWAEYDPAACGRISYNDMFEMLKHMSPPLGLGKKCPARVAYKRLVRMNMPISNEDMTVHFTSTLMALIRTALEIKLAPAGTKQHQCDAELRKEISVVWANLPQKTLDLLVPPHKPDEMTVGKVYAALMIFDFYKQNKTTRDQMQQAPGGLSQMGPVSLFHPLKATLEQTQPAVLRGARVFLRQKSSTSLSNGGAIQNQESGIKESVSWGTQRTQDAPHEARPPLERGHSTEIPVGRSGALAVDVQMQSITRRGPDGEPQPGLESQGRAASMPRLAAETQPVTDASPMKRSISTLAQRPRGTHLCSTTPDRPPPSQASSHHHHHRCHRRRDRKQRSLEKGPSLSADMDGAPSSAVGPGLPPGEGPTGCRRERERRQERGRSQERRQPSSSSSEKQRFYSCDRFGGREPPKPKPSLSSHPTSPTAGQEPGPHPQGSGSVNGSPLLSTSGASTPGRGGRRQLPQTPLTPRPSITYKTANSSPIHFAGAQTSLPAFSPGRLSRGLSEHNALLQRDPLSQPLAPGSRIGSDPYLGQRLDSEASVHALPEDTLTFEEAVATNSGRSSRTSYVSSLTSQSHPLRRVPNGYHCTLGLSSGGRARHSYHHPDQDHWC
T5 sequence (Q02410 whole entry): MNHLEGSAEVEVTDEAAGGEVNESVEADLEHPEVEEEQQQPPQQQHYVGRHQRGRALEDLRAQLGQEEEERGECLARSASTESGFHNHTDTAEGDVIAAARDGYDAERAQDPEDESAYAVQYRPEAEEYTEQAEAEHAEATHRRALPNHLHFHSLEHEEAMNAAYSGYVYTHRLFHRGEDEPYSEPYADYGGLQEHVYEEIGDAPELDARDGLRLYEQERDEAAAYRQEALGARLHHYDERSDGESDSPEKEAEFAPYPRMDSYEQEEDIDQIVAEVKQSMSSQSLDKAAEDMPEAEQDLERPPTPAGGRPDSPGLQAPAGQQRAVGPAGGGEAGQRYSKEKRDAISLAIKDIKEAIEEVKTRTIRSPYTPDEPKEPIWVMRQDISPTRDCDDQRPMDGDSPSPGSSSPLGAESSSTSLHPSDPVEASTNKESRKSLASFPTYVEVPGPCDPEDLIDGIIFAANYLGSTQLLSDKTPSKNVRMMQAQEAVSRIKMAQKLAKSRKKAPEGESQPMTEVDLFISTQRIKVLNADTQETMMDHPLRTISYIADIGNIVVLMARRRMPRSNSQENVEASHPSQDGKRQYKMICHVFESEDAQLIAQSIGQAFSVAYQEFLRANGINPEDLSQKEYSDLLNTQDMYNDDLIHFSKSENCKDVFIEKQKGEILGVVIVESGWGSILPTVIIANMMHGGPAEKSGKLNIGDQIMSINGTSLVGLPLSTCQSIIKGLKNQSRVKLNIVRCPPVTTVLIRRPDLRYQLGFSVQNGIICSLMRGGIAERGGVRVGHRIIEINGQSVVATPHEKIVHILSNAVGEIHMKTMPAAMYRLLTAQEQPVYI
Sequence of Intestinal-type alkaline phosphatase (Mus musculus, UniProt P24822) (P24822 whole entry): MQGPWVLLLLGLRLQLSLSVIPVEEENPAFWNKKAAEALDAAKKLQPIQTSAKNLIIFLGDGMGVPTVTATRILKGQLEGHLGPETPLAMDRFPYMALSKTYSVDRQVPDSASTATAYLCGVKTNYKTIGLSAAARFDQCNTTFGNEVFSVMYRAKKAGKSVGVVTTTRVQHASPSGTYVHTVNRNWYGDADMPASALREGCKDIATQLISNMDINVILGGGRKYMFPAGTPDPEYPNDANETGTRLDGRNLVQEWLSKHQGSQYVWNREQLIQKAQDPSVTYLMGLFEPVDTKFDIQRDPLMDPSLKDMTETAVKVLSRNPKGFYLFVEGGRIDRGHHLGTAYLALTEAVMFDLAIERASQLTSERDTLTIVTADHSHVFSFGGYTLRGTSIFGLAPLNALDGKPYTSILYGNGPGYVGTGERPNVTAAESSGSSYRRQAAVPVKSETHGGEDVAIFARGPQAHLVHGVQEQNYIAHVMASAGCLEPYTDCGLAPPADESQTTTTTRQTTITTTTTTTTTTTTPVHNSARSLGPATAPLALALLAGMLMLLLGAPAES
Sequence of UDP-galactopyranose mutase (P9WIQ1 whole entry): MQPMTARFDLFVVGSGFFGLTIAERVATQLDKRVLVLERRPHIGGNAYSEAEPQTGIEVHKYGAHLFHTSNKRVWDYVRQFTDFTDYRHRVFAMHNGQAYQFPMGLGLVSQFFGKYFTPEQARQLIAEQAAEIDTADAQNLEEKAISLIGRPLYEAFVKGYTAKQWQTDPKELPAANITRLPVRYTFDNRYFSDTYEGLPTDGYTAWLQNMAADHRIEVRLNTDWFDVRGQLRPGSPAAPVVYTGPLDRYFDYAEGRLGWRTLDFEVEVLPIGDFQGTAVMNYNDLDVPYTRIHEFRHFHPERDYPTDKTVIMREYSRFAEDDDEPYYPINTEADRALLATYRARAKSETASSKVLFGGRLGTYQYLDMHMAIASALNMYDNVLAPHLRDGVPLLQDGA
Sequence of Protein Rev (P04618 whole entry): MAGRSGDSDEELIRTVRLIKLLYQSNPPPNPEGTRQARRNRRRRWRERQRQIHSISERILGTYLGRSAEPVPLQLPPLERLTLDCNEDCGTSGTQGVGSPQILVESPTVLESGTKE

Question: For `Nc1ccc2nonc2c1[N+](=O)[O-]`, which AC50 [1] is on record?
Answer: 7.99 µM (active)

Question: What about the IC50 [2] of the same compound?
Answer: 0.69 µM (active)

Question: What about the AC50 [3] of the same compound?
Answer: 7.95 µM (active)

Question: What about the IC50 [4] of the same compound?
Answer: 0.248 µM (active)

Question: What about the AC50 [5] of the same compound?
Answer: 8.03 µM (active)

Question: For `O=C(O)c1ccccc1C(=O)Nc1cc(-c2ccccc2)n[nH]1`, which IC50 [6] is on record?
Answer: 32.7 µM (active)

Question: And the IC50 [7]?
Answer: 58.5 µM (active)

Question: What about the IC50 [8] of the same compound?
Answer: 10.5 µM (inactive)

Question: What about the EC50 [9] of the same compound?
Answer: > 100 µM (inactive)

Question: Which IC50 [10] does the source give for `CCC[C@@H](CN1CCC[C@H]1CN1C(N)=NC[C@@H]1Cc1ccccc1)N1C[C@@H]([C@H](C)CC)N(CCCC2CCCC2)C1=N` here?
Answer: 8.52 µM (active)

Question: What about the IC50 [11] of the same compound?
Answer: 17.5 µM (inactive)

Question: What about the IC50 [12] of the same compound?
Answer: > 20 µM (inactive)

Question: And the AC50 [13]?
Answer: 7.33 µM (active)

Question: And the IC50 [14]?
Answer: 10.9 µM (active)

Question: And the IC50 [15]?
Answer: 15.2 µM (inactive)

Question: With `O=C(O)CCN1C(=O)/C(=C2\C(=O)N(Cc3ccccc3Cl)c3ccccc32)SC1=S` as the compound, how does the IC50 [16] read?
Answer: > 100 µM (not active)

Question: What about the IC50 [17] of the same compound?
Answer: 9.81 µM (active)

Question: What about the IC50 [18] of the same compound?
Answer: 3.2 µM (active)

Question: And the IC50 [19]?
Answer: 2.03 µM (active)

Question: And the IC50 [20]?
Answer: 0.549 µM (active)

Question: And the IC50 [21]?
Answer: 3.06 µM (active)

Question: And the IC50 [22]?
Answer: 2.88 µM (active)

Question: What about the IC50 [23] of the same compound?
Answer: > 50 µM (inactive)

Question: And the IC50 [24]?
Answer: 30.9 µM (active)

Question: What about the IC50 [25] of the same compound?
Answer: < 1.23 µM (inactive)

Question: And the IC50 [26]?
Answer: 1.91 µM (active)

Question: What does the source list for `O=C(Nc1nnc(-c2ccco2)o1)c1ccc(N2C(=O)CCC2=O)cc1`?
Answer: AC50 [27]: 126 µM (active); AC50 [28]: 13.9 µM (active); AC50 [29]: 14.7 µM (active)
